Measurements reported in patent publication US11161839B2, “2-quinolone derived inhibitors of BCL6” (Cancer Research Technology Limited, priority 2017, dated 2021).
Read-outs that look alike come from different tables or passages of the source.

Experiments:
[1] = biological target: human BCL6 BTB domain (Trx-6xHis-BCL6) (Homo sapiens (Human), UniProt P41182); assay: HTRF in vitro assay (BCL6 BTB domain / BCOR-AF633 peptide); format: binding
Procedure: The % inhibition at each concentration was calculated by normalising FRET ratio to the appropriate high (DMSO with all reagents) and low (DMSO without BCL6) controls.

[2] = biological target: BCL6-NCOR2(SMRT) corepressor protein-protein interaction (Homo sapiens (Human), UniProt P41182); assay: NanoBRET cell assay in transfected HEK293T cells; format: cell-based
Source text: A cellular nano-Bioluminescence Resonance Energy Transfer (nanoBRET) assay (Promega NanoBRET Nano-Glo Detection System, catalogue number N1662) was used to detect inhibition of the BCL6-NCOR2(SMRT) corepressor protein-protein interaction. DNA encoding full length BCL6 and NCOR2 were inserted into pFC32K.NanoLuc and pFC14K.HaloTag vectors (Promega) to produce C-terminal tagged fusion proteins BCL6-nanoLuc and NCOR2-HaloTag, respectively. […] Frozen transfected HEK293T cells were thawed, centrifuged and freezing medium was replaced by phenol red-free OptiMEM+4% FBS (Life Technology). […] Cells were incubated for 6 hr at 37° C./5% CO2 then NanoBRET furimazine substrate (Promega) was added to give a final concentration of 10 μM. After a short centrifugation the plates were read on an Envision (Perkin Elmer) plate reader equipped with a LUM/D600 Dual mirror, Lum 450/40 nm bandpass and D605 nm longpass filters, with a 0.2 sec reading to determine the BRET ratio. The % inhibition at each test concentration was calculated by normalising the BRET ratio to the appropriate high and low controls.

[3] = further generated data (Table 1b), 1 nM Trx-6xHis-BCL6, 0.5 nM anti-6xHis-Terbium cryptate
[4] = further generated data (Table 2b), HEK293T cells, 6 hr, read-out: NanoBRET cell pIC50 (converted)
[5] = initially generated data (Table 1a), 10 nM Trx-6xHis-BCL6, 1 nM anti-6xHis-Terbium cryptate

Compound	HTRF pIC50 [1, 3]	IC50 [2, 4] [nM]	HTRF pIC50 [1, 5]	IC50 [2] [nM]	IC50 ([1]; further generated data (Table 1b), 1 nM Trx-6xHis-BCL6, 0.5 nM anti-6xHis-Terbium cryptate, read-out: HTRF pIC50 (converted)) [nM]
COc1ncc(Cl)c(Nc2ccc3c(c2)c(N[C@H](C)C2CC2)cc(=O)n3C)n1 [Example 11e]	6.20	3470			
COCC(C)(C)Nc1cc(=O)n(C)c2ccc(Nc3nc(N4CCC(C(=O)N(C)C)CC4)ncc3Cl)cc12 [Example 16d, 1-(5-chloro-4-((4-((1-methoxy-2-methylpropan-2-yl)amino)-1-methyl-2-oxo-1,2-dihydroquinolin-6-yl)amino)pyrimidin-2-yl)-N,N-dimethylpiperidine-4-carboxamide]	6.25	9120			
CNC(=O)c1cc(Nc2ccc3c(c2)c(NC(C)c2ncccn2)cc(=O)n3C)c(C#N)c(Cl)n1 (stereo not shown) [Example 1v, 6-chloro-5-cyano-N-methyl-4-[[1-methyl-2-oxo-4-(1-pyrimidin-2-ylethylamino)-6-quinolyl]amino]pyridine-2-carboxamide]	7.31	933	6.76		
CC(Nc1cc(=O)n(CC2CC2)c2ccc(Nc3ccnc(Cl)c3C#N)cc12)c1ncccn1 (stereo not shown) [Example 11h, 2-chloro-4-((1-(cyclopropylmethyl)-2-oxo-4-((1-(pyrimidin-2-yl)ethyl)amino)-1,2-dihydroquinolin-6-yl)amino)nicotinonitrile]	6.65	2820			
C[C@@H](Nc1cc(=O)n(C)c2ccc(Nc3cc(-n4cc(CCO)cn4)ncc3Cl)cc12)C1CC1 [Example 15f, (R)-6-((5-chloro-2-(4-(2-hydroxyethyl)-1H-pyrazol-1-yl)pyridin-4-yl)amino)-4-((1-cyclopropylethyl)amino)-1-methylquinolin-2(1H)-one]	6.58	2290			
Cn1c(=O)cc(NC(C)(C)c2ncccn2)c2cc(Nc3nc(-n4ccc(C(F)(F)F)n4)ncc3Cl)ccc21 [Example 14d, 6-((5-chloro-2-(3-(trifluoromethyl)-1H-pyrazol-1-yl)pyrimidin-4-yl)amino)-1-methyl-4((2-(pyrimidin-2-yl)propan-2-yl)amino)quinolin-2(1H)-one]	6.44	2040			
Cc1cnc(C(C)Nc2cc(=O)n(C)c3ccc(Nc4ccnc(Cl)c4C#N)cc23)nc1 (stereo not shown) [Example 10f]	7.12			1070	
C[C@@H](Nc1cc(=O)n(C)c2ncc(Nc3ccnc(Cl)c3C#N)cc12)C1CC1 [Example 24d, (R)-2-chloro-4-((5-((1-cyclopropylethyl)amino)-8-methyl-7-oxo-7,8-dihydro-1,8-naphthyridin-3-yl)amino)nicotinonitrile]	6.53	4470			
CN(C)C(=O)c1cc(Nc2ccc3c(c2)c(NC(C)(C)c2ncccn2)cc(=O)n3C)c(C#N)c(Cl)n1 [Example 19a, 6-chloro-5-cyano-N,N-dimethyl-4-((1-methyl-2-oxo-4-((2-(pyrimidin-2-yl)propan-2-yl)amino)-1,2-dihydroquinolin-6-yl)amino)picolinamide]	7.55	2750			
CC(Nc1cc(=O)n(C)c2ccc(Nc3cc(-n4cc(CCO)cn4)ncc3Cl)cc12)c1ncccn1 (stereo not shown) [Example 15i, 6-((5-chloro-2-(4-(2-hydroxyethyl)-1H-pyrazol-1-yl)pyridin-4-yl)amino)-1-methyl-4-((1-(pyrimidin-2-yl)ethyl)amino)quinoline-2(1H)-one]	6.58	1550			
CC(Nc1cc(=O)n(C)c2ccc(Nc3cc(N4C[C@@H](C)O[C@@H](C)C4)ncc3Cl)cc12)c1ncccn1 (stereo partly drawn) [Example 15e, 6-((5-chloro-2-((2S,6R)-2,6-dimethylmorpholino)pyridin-4-yl)amino)-1-methyl-4-((1-(pyrimidin-2-yl)ethyl)amino)quinolin-2(1H)-one]	6.28	4270			
CC(Nc1cc(=O)n(C)c2ccc(Nc3nc(N4C[C@@H](C)O[C@@H](C)C4)ncc3Cl)cc12)c1ncccn1 (stereo partly drawn) [Example 17a, 6-((5-chloro-2-((2S,6R)-2,6-dimethylmorpholino)pyrimidin-4-yl)amino)-1-methyl-4-((1-(pyrimidin-2-yl)ethyl)amino)quinolin-2(1H)-one]	6.48	1780			
Cn1c(=O)cc(N[C@H](CO)C2CC2)c2cc(Nc3ccnc(Cl)c3C#N)ccc21 [Example 11a, (S)-2-chloro-4-((4-((1-cyclopropyl-2-hydroxyethyl)amino)-1-methyl-2-oxo-1,2-dihydroquinolin-6-yl)amino)nicotinonitrile]	6.78	3390			
CC(Nc1cc(=O)n(CCN2C(=O)CCC2=O)c2ccc(Nc3ccnc(Cl)c3C#N)cc12)c1ncccn1 (stereo not shown) [Example 1c, 2-chloro-4-[[1-[2-(2,5-dioxopyrrolidin-1-yl)ethyl]-2-oxo-4-(1-pyrimidin-2-ylethylamino)-6-quinolyl]amino]pyridine-3-carbonitrile]	6.73	22400	6.63		
Cn1c(=O)cc(NC(C)(C)c2ccccn2)c2cc(Nc3ccnc(Cl)c3C#N)ccc21 [Example 11b, 2-chloro-4-((1-methyl-2-oxo-4-((2-(pyridin-2-yl)propan-2-yl)amino)-1,2-dihydroquinolin-6-yl)amino)nicotinonitrile:formic acid (1:1)]	6.52	1290			
CC(Nc1cc(=O)n(C)c2ccc(Nc3nc(N4CCC(F)(F)C(CO)C4)ncc3Cl)cc12)c1ncccn1 (single isomer, unassigned) [Example 26d]		3800			501
Cn1c(=O)cc(NC(C)(C)c2ncccn2)c2cc(Nc3cc(Cl)nc(Cl)c3Cl)ccc21 [Example 13, 1-methyl-4-((2-(pyrimidin-2-yl)propan-2-yl)amino)-6-((2,3,6-trichloropyridin-4-yl)amino)quinolin-2(1H)-one]	6.66	1700			
CCC(C)(COC)Nc1cc(=O)n(C)c2ccc(Nc3cc(C(=O)NC)nc(Cl)c3C#N)cc12 (stereo not shown) [Example 19f, 6-chloro-5-cyano-4-((4-((1-methoxy-2-methylbutan-2-yl)amino)-1-methyl-2-oxo-1,2-dihydroquinolin-6-yl)amino)-N-methylpicolinamide]	6.40	2950			
COCC(C)(C)Nc1cc(=O)n(C)c2ccc(Nc3ccnc(Cl)c3C#N)cc12 [Example 19d, 2-chloro-4-((4-((1-methoxy-2-methylpropan-2-yl)amino)-1-methyl-2-oxo-1,2-dihydroquinolin-6-yl)amino)nicotinonitrile]	6.51	8710			
Cn1c(=O)cc(NC2(C#N)CC2)c2cc(Nc3ccnc(Cl)c3C#N)ccc21 [Example 24b, 2-chloro-4-((4-((1-cyanocyclopropyl)amino)-1-methyl-2-oxo-1,2-dihydroquinolin-6-yl)amino)nicotinonitrile]	6.49	4790			
C[C@@H](Nc1nc(=O)n(C)c2ccc(Nc3ccnc(Cl)c3Cl)cc12)C1CC1 [Example 6d, (R)-4-((1-cyclopropylethyl)amino)-6-((2,3-dichloropyridin-4-yl)amino)-1-methylquinazolin-2(1H)-one]	6.09	1820			
CC(Nc1cc(=O)n(C)c2ccc(Nc3ccnc(Cl)c3C#N)cc12)c1ccccn1 (stereo not shown) [Example 11d, 2-chloro-4-((1-methyl-2-oxo-4-((1-(pyridin-2-yl)ethyl)amino)-1,2-dihydroquinolin-6-yl)amino)nicotinonitrile: formic acid (1:1)]	6.34	4370			
CC(Nc1cc(=O)n(C)c2ccc(Nc3ccnc(Cl)c3C#N)cc12)c1ncc(-c2cccnc2)cn1 (stereo not shown) [Example 20, 2-chloro-4-((1-methyl-2-oxo-4-((1-(5-(pyridin-3-yl)pyrimidin-2-yl)ethyl)amino)-1,2-dihydroquinolin-6-yl)amino)nicotinonitrile]	7.46	479			
Cn1c(=O)cc(NC2CC2(C)C)c2cc(Nc3cc(C(=O)O)nc(Cl)c3C#N)ccc21 (stereo not shown) [Example 9j, 6-chloro-5-cyano-4-((4-((2,2-dimethylcyclopropyl)amino)-1-methyl-2-oxo-1,2-dihydroquinolin-6-yl)amino)picolinic acid]	6.49				
C[C@@H](Nc1cc(=O)n(C)c2ccc(Nc3ccnc(Cl)c3C#N)cc12)C(=O)NC1CCCC1 [Example 3d, (R)-2-((6-((2-Chloro-3-cyanopyridin-4-yl)amino)-1-methyl-2-oxo-1,2-dihydroquinolin-4-yl)amino)-N-cyclopentylpropanamide]	6.61		6.62		
Cn1c(=O)cc(NC(C)(C)c2ncccn2)c2cc(Nc3cc(C(=O)N4CC(CC#N)C4)nc(Cl)c3C#N)ccc21 [Example 8h, 2-chloro-6-(3-(cyanomethyl)azetidine-1-carbonyl)-4-((1-methyl-2-oxo-4-((2-(pyrimidin-2-yl)propan-2-yl)amino)-1,2-dihydroquinolin-6-yl)amino)nicotinonitrile]	7.68				
